Source: BindingDB's records for doi:10.1016/0960-894X(95)00549-9 (1996)

Target: T1, Bile salt-activated lipase (Bos taurus, UniProt P30122)
T1 sequence (P30122 whole entry): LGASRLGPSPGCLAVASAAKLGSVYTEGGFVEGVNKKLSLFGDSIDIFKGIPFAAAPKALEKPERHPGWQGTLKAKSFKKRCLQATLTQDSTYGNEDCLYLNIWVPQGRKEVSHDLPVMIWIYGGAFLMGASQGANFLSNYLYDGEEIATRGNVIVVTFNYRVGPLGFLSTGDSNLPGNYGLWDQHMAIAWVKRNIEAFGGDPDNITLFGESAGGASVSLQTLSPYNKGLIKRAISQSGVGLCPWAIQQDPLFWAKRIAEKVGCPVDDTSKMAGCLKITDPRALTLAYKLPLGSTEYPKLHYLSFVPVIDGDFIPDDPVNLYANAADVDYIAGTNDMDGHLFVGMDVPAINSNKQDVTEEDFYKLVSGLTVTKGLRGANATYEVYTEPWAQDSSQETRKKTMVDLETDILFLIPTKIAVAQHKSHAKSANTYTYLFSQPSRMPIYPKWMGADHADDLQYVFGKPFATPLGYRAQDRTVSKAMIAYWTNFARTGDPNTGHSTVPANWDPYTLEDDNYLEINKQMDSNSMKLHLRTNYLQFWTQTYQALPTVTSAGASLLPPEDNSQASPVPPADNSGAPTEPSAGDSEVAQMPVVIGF
Test: Bimolecular rate constant (ki) for the Pancreatic cholesterol esterase-catalyzed hydrolysis of 4-nitrophenyl butyrate
Settings: for kon: read-out: kon (M-1-s-1)

Row | kon (M-1-s-1) | kon [M⁻¹ s⁻¹] | SMILES
1 | 6000 M-1-s-1 | 6000 | CCCCNC(=O)Oc1ccc2ccccc2c1-c1c(OC(=O)CCC)ccc2ccccc12 [Butyric acid 2'-butylcarbamoyloxy-[1,1']binaphthalenyl-2-yl ester]
2 | 500000.000000 M-1-s-1 | 500000 | CCCCNC(=O)Oc1ccc2ccccc2c1-c1c(O)ccc2ccccc12 [Butyl-carbamic acid 2'-hydroxy-[1,1']binaphthalenyl-2-yl ester]
3 | 4000 M-1-s-1 | 4000 | CCCCNC(=O)Oc1ccc2ccccc2c1-c1c(OC(=O)NCCCC)ccc2ccccc12 [Butyl-carbamic acid 2'-butylcarbamoyloxy-[1,1']binaphthalenyl-2-yl ester]
